Columns and labels:
D(2) dopamine receptor [1] = biological target: T1, D(2) dopamine receptor (Homo sapiens, UniProt P14416); test: Agonist activity at human D2R expressed in CHOK1 cells assessed as induction of beta-arrestin recruitment measured after 90 mins by beta-galactosidase based PathHunter assay; type: cell-based
D(2) dopamine receptor [2] = biological target: T1, D(2) dopamine receptor
D(2) dopamine receptor [3] = biological target: T1, D(2) dopamine receptor; test: Antagonist activity at human D2R expressed in CHOK1 cells assessed as inhibition of dopamine-induced beta-arrestin recruitment measured after 120 mins by beta-galactosidase based PathHunter assay relative to sulpiride; type: cell-based; conditions: 2 h, read-out: Imax
D(3) dopamine receptor [4] = biological target: T2, D(3) dopamine receptor (Homo sapiens, UniProt P35462); test: Agonist activity at human D3R expressed in CHOK1 cells assessed as induction of beta-arrestin recruitment measured after 90 mins by beta-galactosidase based PathHunter assay; type: cell-based
D(3) dopamine receptor [5] = biological target: T2, D(3) dopamine receptor; test: biochemical
[6] = biological target: 5-hydroxytryptamine receptor 2B (Homo sapiens, UniProt P41595); test: Antagonist activity at recombinant human 5-HT2B receptor expressed in CHOK1 cells assessed as inhibition of serotonin-induced increase in inositol1-phosphate accumulation measured after 30 mins by HTRF assay; type: functional, cell-based
D(2) dopamine receptor [7] = biological target: T1, D(2) dopamine receptor; test: Antagonist activity at human D2R expressed in CHOK1 cells assessed as inhibition of dopamine-induced beta-arrestin recruitment measured after 120 mins by beta-galactosidase based PathHunter assay; type: cell-based

T2 sequence (P35462 whole entry): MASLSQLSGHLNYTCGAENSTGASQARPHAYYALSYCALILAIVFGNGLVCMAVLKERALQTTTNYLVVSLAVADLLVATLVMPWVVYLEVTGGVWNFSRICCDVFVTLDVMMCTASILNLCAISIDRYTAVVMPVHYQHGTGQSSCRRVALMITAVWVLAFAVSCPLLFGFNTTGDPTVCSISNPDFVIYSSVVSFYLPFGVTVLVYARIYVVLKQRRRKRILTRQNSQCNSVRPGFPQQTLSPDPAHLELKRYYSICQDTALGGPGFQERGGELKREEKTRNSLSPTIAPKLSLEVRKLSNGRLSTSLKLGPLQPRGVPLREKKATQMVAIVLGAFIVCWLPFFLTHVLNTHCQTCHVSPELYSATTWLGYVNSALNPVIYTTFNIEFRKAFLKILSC
T1 sequence (P14416 whole entry): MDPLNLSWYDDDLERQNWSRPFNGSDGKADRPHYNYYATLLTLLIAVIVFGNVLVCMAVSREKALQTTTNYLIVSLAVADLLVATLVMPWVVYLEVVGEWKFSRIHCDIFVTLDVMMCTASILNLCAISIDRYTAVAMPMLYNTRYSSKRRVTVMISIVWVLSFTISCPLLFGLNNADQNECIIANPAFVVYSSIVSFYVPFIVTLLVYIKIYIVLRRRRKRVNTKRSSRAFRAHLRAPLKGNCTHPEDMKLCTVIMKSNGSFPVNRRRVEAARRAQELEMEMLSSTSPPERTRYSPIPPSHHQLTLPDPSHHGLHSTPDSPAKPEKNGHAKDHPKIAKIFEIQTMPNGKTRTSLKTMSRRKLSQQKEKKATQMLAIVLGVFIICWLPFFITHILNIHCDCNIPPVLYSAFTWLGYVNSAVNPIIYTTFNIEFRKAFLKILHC
Chain of 5-hydroxytryptamine receptor 2B (P41595 whole entry): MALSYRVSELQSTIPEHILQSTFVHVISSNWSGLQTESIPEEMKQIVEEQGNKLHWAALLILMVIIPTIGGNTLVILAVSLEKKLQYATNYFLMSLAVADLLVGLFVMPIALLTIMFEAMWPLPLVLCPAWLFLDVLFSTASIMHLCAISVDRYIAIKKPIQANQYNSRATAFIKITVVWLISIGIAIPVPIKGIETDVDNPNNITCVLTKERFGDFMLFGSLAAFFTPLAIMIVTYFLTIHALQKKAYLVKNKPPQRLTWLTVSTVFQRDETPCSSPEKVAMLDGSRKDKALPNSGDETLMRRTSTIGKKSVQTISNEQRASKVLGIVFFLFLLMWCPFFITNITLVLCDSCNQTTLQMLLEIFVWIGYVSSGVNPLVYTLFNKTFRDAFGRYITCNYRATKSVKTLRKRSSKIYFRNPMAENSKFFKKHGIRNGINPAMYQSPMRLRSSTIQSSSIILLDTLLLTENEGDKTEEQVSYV

SMILES | EC50 (D(2) dopamine receptor [1]) | Emax (D(2) dopamine receptor [3]) [%] | EC50 (D(3) dopamine receptor [4]; read-out: EC50) [nM] | IC50 (D(2) dopamine receptor [7]; read-out: IC50) [nM] | further results
COc1ccc(OCCN2CCN(C(=O)c3ccc(OC)cc3)CC2)cc1 | Not Active | 88 | 710 |  | IC50 (D(2) dopamine receptor [2]): > 100000 nM; IC50 (D(3) dopamine receptor [5]): 10000 to 100000 nM
Cn1ccc2cc3c(cc21)CCN3C(=O)Nc1cccnc1 |  |  |  |  | EC50 [6]: 13 nM
COc1ccc(C(=O)N2CCN(CCOc3ccc(Cl)cc3)CC2)cc1 | Not Active | 101 |  | > 10000 | 
COc1ccc(OCCN2CCN(C(=O)c3cc4ccccc4[nH]3)CC2)c(Cl)c1 | Not Active |  | 41 | > 10000 | 
COc1ccc(C(=O)N2CCN(CCOc3ccc4c(c3)OCO4)CC2)cc1 | Not Active | 87 | 310 | > 10000 | 
CCc1ccc(C(=O)N2CCN(CCOc3ccc(OC)cc3)CC2)cc1 | Not Active | 106 | 530 | 6000 | 
COc1ccc(OCCN2CCN(C(=O)c3ccc(Cl)cc3)CC2)cc1 | Not Active | 107 |  | 9000 | EC50 (D(3) dopamine receptor [4]): Not Active
COc1ccc(OCCN2CCN(C(=O)c3cc4ccccc4n3C)CC2)cc1 | Not Active | 105 | 310 | 9600 | 
O=C(c1cc2ccccc2[nH]1)N1CCN(CCOc2cccnc2)CC1 |  |  | 7 |  | EC50 (D(2) dopamine receptor [1]; read-out: EC50): 570 nM; IC50 (D(2) dopamine receptor [7]): Not Active
COc1ccc(OC(C)CN2CCN(C(=O)c3ccc(OC)cc3)CC2)cc1 (stereo not given) | Not Active | 89 |  | 18000 | 

Second part, led by results:

EC50 (D(2) dopamine receptor [1]) | Emax (D(2) dopamine receptor [3]) [%] | EC50 (D(3) dopamine receptor [4]; read-out: EC50) [nM] | IC50 (D(2) dopamine receptor [7]; read-out: IC50) [nM] | SMILES | further results
Not Active |  | > 100000 | > 100000 | CCOc1ccc(OCCN2CCN(C(=O)c3cc4ccccc4[nH]3)CC2)cc1 | 
Not Active |  | 997 |  | Cc1ccc(OCCN2CCN(C(=O)c3cc4ccccc4[nH]3)CC2)cc1Cl | IC50 (D(2) dopamine receptor [7]): Not Active
 | 72 | 126 | 9700 | O=C(c1cc2ccccc2[nH]1)N1CCN(CCOc2ccc(F)cc2)CC1 | EC50 (D(2) dopamine receptor [1]; read-out: EC50): > 50000 nM
 |  | 151 | > 100000 | Cc1ccc(OCCN2CCN(C(=O)c3cc4ccccc4[nH]3)CC2)cc1 | EC50 (D(2) dopamine receptor [1]; read-out: EC50): > 50000 nM
 |  | 3800 | > 100000 | O=C(c1cc2ccccc2[nH]1)N1CCN(CCOc2ccc(OC(F)(F)F)cc2)CC1 | EC50 (D(2) dopamine receptor [1]; read-out: EC50): > 100000 nM
Not Active |  | 710 | > 50000 | COc1ccc(OCCN2CCN(C(=O)c3cc4ccccc4[nH]3)CC2)cc1OC | 
Not Active | 88 | 610 | 13000 | Cc1ccc(OCCN2CCN(C(=O)c3cc4ccccc4[nH]3)CC2)cc1C | 
Not Active |  | 3500 | > 100000 | O=C(c1cc2ccccc2[nH]1)N1CCN(CCOc2ccccn2)CC1 | 
 |  | 5 |  | O=C(c1cc2ccccc2[nH]1)N1CCN(CCOc2cncc(Cl)c2)CC1 | EC50 (D(2) dopamine receptor [1]; read-out: EC50): 790 nM; IC50 (D(2) dopamine receptor [7]): Not Active
 | 37 | 9.2 | 535 | O=C(c1cc2ccccc2[nH]1)N1CCN(CCOc2ccccc2)CC1 | EC50 (D(2) dopamine receptor [1]; read-out: EC50): 1800 nM
Not Active |  | 114 | > 50000 | O=C(c1cc2ccccc2[nH]1)N1CCN(CCOc2ccc(Cl)cc2)CC1 | 
Not Active | 111 |  | 7700 | COc1ccc(OCCN2CCN(C(=O)c3cc4ccccc4o3)CC2)cc1 | 
Not Active |  | 472 | > 100000 | O=C(c1cc2ccccc2[nH]1)N1CCN(CCOc2ccncc2)CC1 | 
 | 30 | 280 | 7400 | COc1cccc(OCCN2CCN(C(=O)c3cc4cnccc4[nH]3)CC2)c1 | EC50 (D(2) dopamine receptor [1]; read-out: EC50): 830 nM

From ChEMBL document CHEMBL4402608 (J Med Chem, 2020)
